Measurements reported in PubChem BioAssay (NCI).
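Method: 48-hour compound exposure of cells in 96-well plates, five concentrations, linear interpolation of endpoints. GI50 marks 50% less growth. TGI: total growth inhibition.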

What was measured:
Experiment in all cases: growth of human tumour cells (NCI), 48 h
[1] = tested on: HOP-62 NSCLC
[2] = tested on: SK-MEL-28 melanoma
[3] = tested on: IGROV1 ovarian
[4] = tested on: CAKI-1 renal
[5] = tested on: TK-10 renal
[6] = tested on: HS 578T breast
[7] = tested on: NCI-H522 lung
[8] = tested on: UACC-257 melanoma
[9] = tested on: DU-145 prostate
[10] = tested on: EKVX NSCLC

Compound | GI50 [1] [µM] | TGI [1] [µM] | GI50 [2] [µM] | TGI [2] [µM] | GI50 [3] [µM] | TGI [3] [µM] | GI50 [4] [µM] | TGI [4] [µM] | GI50 [5] [µM] | TGI [5] [µM] | GI50 [6] [µM] | TGI [6] [µM] | GI50 [7] [µM] | TGI [7] [µM] | GI50 [8] [µM] | TGI [8] [µM] | GI50 [9] [µM] | TGI [9] [µM] | GI50 [10] [µM] | TGI [10] [µM]
CCC(=O)Nc1ccc2c(c1)CN1C(=O)c3ccccc3C1=N2 | > 100 | > 100 | > 100 | > 100 | > 100 | > 100 | > 100 | > 100 | > 100 | > 100 | > 100 | > 100 | > 100 | > 100 | > 100 | > 100 | > 100 | > 100 | – | –
N#Cc1c(N)nc(N2CCOCC2)c(C#N)c1-c1cccc(O)c1 | 78.3 | > 100 | > 100 | > 100 | 18.7 | 61.2 | > 100 | > 100 | – | – | 40.7 | > 100 | – | – | > 100 | > 100 | > 100 | > 100 | 73.5 | > 100
N#Cc1c(C(N)=O)ncn1Cc1ccccc1 | – | > 100 | – | – | – | > 100 | – | > 100 | – | > 100 | – | – | – | > 100 | – | > 100 | – | – | – | > 100
O=C1CC(c2ccccc2)NCN1 (stereo not drawn) | – | > 100 | – | > 100 | – | > 100 | – | > 100 | – | > 100 | – | – | – | > 100 | – | > 100 | – | – | – | > 100
CCCCCCCCO/N=C\c1c2c(O)c3c(O)c(C)c4c(c3c1O)C(=O)C(C)(O/C=C\C(OC)C(C)C(OC(C)=O)C(C)C(O)C(C)C(O)C(C)/C=C\C=C(\C)C(=O)N2)O4 (stereo not drawn) | 1.63 | 5.78 | 1.37 | 4.17 | – | – | 1.33 | 5.04 | – | – | 1.07 | 3.1 | – | – | 1.34 | 4.69 | 1.8 | 6.93 | 1.43 | 6.59
CCC12CC[C@H](C#N)N3CCc4c(n(c5ccccc45)C(=O)C1)C32 (stereo partly drawn) | – | 49.2 | – | 40.4 | – | 63.3 | – | 34.3 | – | 46.8 | – | – | – | – | – | 32.9 | – | – | – | 64.1
NC1=NN(c2ccccc2)C(=O)C1C(=O)C(=O)Nc1cccc(C(F)(F)F)c1 (stereo not drawn) | – | > 100 | – | – | – | > 100 | – | > 100 | – | > 100 | – | – | – | > 100 | – | > 100 | – | – | – | > 100
CCN(CC)CCCN1C(=O)c2c(c(C)c3c(oc4cc(O)ccc43)c2C)C1=O | 1.73 | 3.29 | 1.83 | 3.4 | 1.74 | 3.4 | 1.62 | 3.05 | 1.77 | 3.28 | – | – | 1.84 | 3.66 | 1.81 | 3.62 | 1.83 | 3.32 | 1.51 | 3.16
CCN(CC)CCCC(C)N/C(c1cccc(OC)c1)=c1\c(=O)[nH]n(-c2c3ccccc3nc3ccccc23)c(=O)\c1=C(/NC(C)CCCN(CC)CC)c1cccc(OC)c1 (stereo not drawn) | 1.47 | 5.03 | 1.69 | 3.17 | 1.52 | 4.99 | 1.66 | 4.17 | 2.58 | 7.89 | 2.3 | 7.28 | 1.55 | 3.21 | 1.78 | 3.43 | 1.44 | 8.86 | – | –
O=C(O/N=C1/CCC/C1=C\c1ccccc1)c1ccccc1 | – | > 100 | – | > 100 | – | > 100 | – | > 100 | – | > 100 | – | – | – | > 100 | – | > 100 | – | – | – | > 100
C[C@@H](Oc1cc(-c2cnn(C3CC4(CCNCC4)C3)c2)cnc1N)c1c(F)ccc(Cl)c1Cl | 1.25 | 5.9 | 1.55 | 3.2 | 2.23 | 7.91 | 2.41 | 7.2 | 1.85 | 4.7 | 1.37 | 4.15 | 1.48 | 3.12 | 1.47 | 2.99 | 2.27 | 11.5 | – | –
O[C@H]1[C@H]2[C@H](O)CCCN2C[C@H]1O | – | > 100 | – | > 100 | – | > 100 | – | > 100 | – | > 100 | – | – | – | > 100 | – | > 100 | – | – | – | > 100
CC(=O)[CH-]C(C)=O.CC(=O)[CH-]C(C)=O.CC(=O)[CH-]C(C)=O.[Cl-].[Hf+4] | > 100 | > 100 | > 100 | > 100 | > 100 | > 100 | > 100 | > 100 | > 100 | > 100 | – | – | > 100 | > 100 | > 100 | > 100 | – | – | > 100 | > 100
COc1cc(-c2ccc(-[n+]3nc(-c4ccc([N+](=O)[O-])cc4)nn3-c3ccc([N+](=O)[O-])cc3)c(OC)c2)ccc1-[n+]1nc(-c2ccc([N+](=O)[O-])cc2)nn1-c1ccc([N+](=O)[O-])cc1 | 1.84 | 4.54 | 18 | 64.4 | 0.707 | 51.7 | 15.1 | 48.5 | 4.61 | 17.5 | 1.93 | 5.07 | 0.672 | 7.71 | 2.83 | 12 | 2.9 | 9.29 | – | –
O=c1[nH]cnc2c1nnn2[C@@H]1O[C@H](CO)[C@@H](O)[C@H]1O | 9.22 | > 100 | 31.5 | > 100 | 2.57 | 58.1 | 1.04 | > 100 | 9.1 | > 100 | 17.6 | > 100 | 4.55 | 63.4 | 28.6 | > 100 | 1.72 | > 100 | – | –
C/C(=N\[N+](C)(C)C)C(c1ccccc1)C1(c2ccccc2)C(c2ccccc2)=C1c1ccccc1 (stereo not drawn) | – | > 100 | – | – | – | > 100 | – | > 100 | – | > 100 | – | – | – | > 100 | – | > 100 | – | – | – | > 100
Cn1cc(C(=O)/C(Cl)=C(\Cl)C(=O)O)c2ccccc21 | – | > 100 | – | > 100 | – | > 100 | – | > 100 | – | > 100 | – | – | – | – | – | > 100 | – | – | – | > 100
